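Where inhibition never reached the appropriate level, the endpoint shown equals the highest concentration tested. Otherwise, values were interpolated linearly from a five-concentration, 48-hour dose response in 96-well plates. GI50 is the concentration that inhibits growth by half.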 Active and inactive are the calls of the source. Cut-off read from the data, not from the text of the source: active = GI50 up to about 1.1 µM and inactive = higher.
Columns and labels:
Assay in all cases: NCI-60 cell line screen, 48 h
NCI/ADR-RES = system: NCI/ADR-RES
SW-620 = system: SW-620
A498 = system: A498
A549 = system: A549
MDA-MB-435 = system: MDA-MB-435
HT-29 = system: HT-29
T47D = system: T47D
SK-MEL-2 = system: SK-MEL-2
NCI-H460 = system: NCI-H460
SK-OV-3 = system: SK-OV-3
HCC 2998 = system: HCC 2998
LOX IMVI = system: LOX IMVI
OVCAR-8 = system: OVCAR-8
OVCAR-4 = system: OVCAR-4
SF-268 = system: SF-268
HOP-62 = system: HOP-62
MCF7 = system: MCF7
EKVX = system: EKVX
NCI-H226 = system: NCI-H226
NCI-H23 = system: NCI-H23

Measured: GI50

COc1cc(/C=C2\N=C(c3ccccc3)N(c3nc4c(Cl)cc(Cl)cc4s3)C2=O)ccc1O
inactive: NCI/ADR-RES 31 µM | SW-620 32.4 µM | A498 17.8 µM | A549 30.8 µM | MDA-MB-435 27.5 µM | HT-29 27.7 µM | T47D 24.8 µM | SK-MEL-2 23.4 µM | NCI-H460 28.3 µM | SK-OV-3 55.7 µM | HCC 2998 19.8 µM | LOX IMVI 20.5 µM | OVCAR-8 31.8 µM | OVCAR-4 29.2 µM | SF-268 30.1 µM | HOP-62 32 µM | MCF7 28.1 µM | EKVX 17.9 µM

Cc1ccc(S(=O)(=O)NNC(=O)c2cc(C)c(C)cc2N)cc1
inactive: NCI-H226 > 100 µM | NCI/ADR-RES > 100 µM | SW-620 > 100 µM | A498 > 100 µM | MDA-MB-435 > 100 µM | HT-29 > 100 µM | T47D 96.6 µM | NCI-H460 > 100 µM | SK-OV-3 > 100 µM | HCC 2998 > 100 µM | NCI-H23 > 100 µM | LOX IMVI > 100 µM | OVCAR-8 60.4 µM | OVCAR-4 > 100 µM | HOP-62 > 100 µM | MCF7 > 100 µM | EKVX > 100 µM

CC(=O)O[C@H]1CC[C@H]2[C@@H]3CCC4=C(C(=O)C=CC4(C)OC(C)=O)[C@H]3CC[C@]12C (stereo not given in full)
inactive: NCI-H226 > 100 µM | NCI/ADR-RES 43.7 µM | SW-620 35.8 µM | A498 > 100 µM | A549 90.2 µM | MDA-MB-435 49.4 µM | HT-29 46.6 µM | T47D > 100 µM | NCI-H460 42.3 µM | HCC 2998 38.3 µM | NCI-H23 35.8 µM | LOX IMVI 38.1 µM | OVCAR-8 39.5 µM | OVCAR-4 > 100 µM | SF-268 83.4 µM | HOP-62 > 100 µM | MCF7 26.4 µM | EKVX > 100 µM

O=C1C=C2CO[C@H]3OC[C@H](O)[C@@H]1[C@@H]23
inactive: NCI/ADR-RES > 100 µM | SW-620 30.1 µM | A498 > 100 µM | A549 > 100 µM | MDA-MB-435 30.9 µM | HT-29 > 100 µM | T47D 25.5 µM | SK-MEL-2 16.3 µM | NCI-H460 > 100 µM | SK-OV-3 > 100 µM | HCC 2998 29 µM | NCI-H23 > 100 µM | LOX IMVI 32.7 µM | OVCAR-8 32 µM | SF-268 36.2 µM | HOP-62 > 100 µM | MCF7 43.2 µM | EKVX > 100 µM

Clc1cc(OC23CC4CC(CC(C4)C2)C3)nc(Cl)n1
inactive: NCI/ADR-RES > 100 µM | SW-620 41.2 µM | A498 > 100 µM | A549 > 100 µM | MDA-MB-435 39.2 µM | HT-29 28.9 µM | T47D > 100 µM | SK-MEL-2 29.6 µM | NCI-H460 39.6 µM | SK-OV-3 > 100 µM | HCC 2998 12.9 µM | NCI-H23 58.7 µM | LOX IMVI 17 µM | OVCAR-8 > 100 µM | OVCAR-4 40.9 µM | SF-268 69.8 µM | HOP-62 > 100 µM | MCF7 55.7 µM | EKVX 37.5 µM

CC1(C)OC(=O)C(=Cc2ccc([N+](=O)[O-])s2)C(=O)O1
inactive: NCI-H226 23.5 µM | NCI/ADR-RES 18.5 µM | SW-620 1.94 µM | A498 22.5 µM | A549 90.8 µM | MDA-MB-435 14.9 µM | HT-29 13.4 µM | T47D 14 µM | NCI-H460 56.6 µM | SK-OV-3 25.5 µM | HCC 2998 11.3 µM | NCI-H23 18.1 µM | LOX IMVI 16.7 µM | OVCAR-8 11.4 µM | SF-268 14.7 µM | HOP-62 18.2 µM | MCF7 12.7 µM | EKVX 17.1 µM

C=CCN1C(=O)N/C(=C\c2ccc(Cl)cc2)C1=O
inactive: NCI-H226 > 100 µM | NCI/ADR-RES > 100 µM | SW-620 > 100 µM | A498 22.6 µM | A549 83.9 µM | MDA-MB-435 > 100 µM | HT-29 > 100 µM | T47D > 100 µM | NCI-H460 > 100 µM | SK-OV-3 > 100 µM | NCI-H23 > 100 µM | LOX IMVI > 100 µM | OVCAR-8 > 100 µM | OVCAR-4 > 100 µM | SF-268 > 100 µM | HOP-62 > 100 µM | MCF7 > 100 µM | EKVX 93.8 µM

COc1ccc(-c2nnc3n(C)c4ccccc4n3c2=O)cc1
inactive: NCI-H226 > 100 µM | NCI/ADR-RES > 100 µM | SW-620 > 100 µM | A498 > 100 µM | A549 > 100 µM | MDA-MB-435 > 100 µM | HT-29 > 100 µM | T47D > 100 µM | SK-MEL-2 > 100 µM | NCI-H460 38.3 µM | HCC 2998 > 100 µM | NCI-H23 40.1 µM | LOX IMVI > 100 µM | OVCAR-8 56.1 µM | OVCAR-4 > 100 µM | SF-268 29.6 µM | HOP-62 14.5 µM | MCF7 > 100 µM | EKVX > 100 µM

Source: ChEMBL document CHEMBL1201862, “PubChem BioAssay data set” (2004)
